{"source": "paper PMC11213733", "about": "“Computational approaches identify a transcriptomic fingerprint of drug-induced structural cardiotoxicity” (Cell Biology and Toxicology, 2024)", "key": {"cardiac microtissues [1]": {"test_system": "cardiac microtissues", "assay": "Transcriptomic profiling (mRNA-seq) and DESeq2 differential gene expression analysis in cardiac microtissues", "conditions": "absolute log2(Fold-Change) > 1, FDR p ≤ 0.05; for number of significant differentially expressed genes, 6hr high / number of significant differentially expressed genes, 48hr high / number of significant differentially expressed genes, 72hr high: high concentration; for number of significant differentially expressed genes, 6hr low / number of significant differentially expressed genes, 48hr low / number of significant differentially expressed genes, 72hr low: low concentration"}, "[2]": {"conditions": "ref FDA label, cited from earlier work; for Structural cardiotoxin?: FDA label references heart failure or a decrease in left ventricular ejection fraction; for Functional cardiotoxin?: compound annotation"}, "cardiac microtissues [3]": {"test_system": "cardiac microtissues", "assay": "Ingenuity Pathway Analysis over-representation of differentially expressed genes (activation Z-score)", "format": "cell-based, human", "conditions": "48hr high; Group 1"}}, "note": "Where a name gives a salt, the structure may show the parent alone."}
{"molecule": "C#Cc1cccc(Nc2ncnc3cc(OCCOC)c(OCCOC)cc23)c1", "note": "[Erlotinib]", "values": [{"measurement": "number of significant differentially expressed genes, 6hr high", "setting": "cardiac microtissues [1]", "value": 56}, {"measurement": "number of significant differentially expressed genes, 6hr low", "setting": "cardiac microtissues [1]", "value": 39}, {"measurement": "number of significant differentially expressed genes, 48hr high", "setting": "cardiac microtissues [1]", "value": 634}, {"measurement": "number of significant differentially expressed genes, 48hr low", "setting": "cardiac microtissues [1]", "value": 152}, {"measurement": "number of significant differentially expressed genes, 72hr high", "setting": "cardiac microtissues [1]", "value": 283}, {"measurement": "number of significant differentially expressed genes, 72hr low", "setting": "cardiac microtissues [1]", "value": 78}, {"measurement": "Structural cardiotoxin?", "setting": "[2]", "value": "N"}, {"measurement": "Functional cardiotoxin?", "setting": "[2]", "value": "Y"}, {"measurement": "activation Z-score: Cardiac Hypertrophy Signaling", "setting": "cardiac microtissues [3]", "value": -2.236}, {"measurement": "activation Z-score: Cell Cycle Control of Chromosomal Replication", "setting": "cardiac microtissues [3]", "value": -3.742}, {"measurement": "activation Z-score: Cell Cycle Regulation by BTG Family Proteins", "setting": "cardiac microtissues [3]", "value": -2}, {"measurement": "activation Z-score: Cyclins and Cell Cycle Regulation", "setting": "cardiac microtissues [3]", "value": -2.111}, {"measurement": "activation Z-score: D-myo-inositol-5-phosphate Metabolism", "setting": "cardiac microtissues [3]", "value": -2.449}, {"measurement": "activation Z-score: DNA Methylation and Transcriptional Repression Signaling", "setting": "cardiac microtissues [3]", "value": -2.646}, {"measurement": "activation Z-score: Estrogen-mediated S-phase Entry", "setting": "cardiac microtissues [3]", "value": -2.121}, {"measurement": "activation Z-score: Factors Promoting Cardiogenesis in Vertebrates", "setting": "cardiac microtissues [3]", "value": -0.816}, {"measurement": "activation Z-score: G-Protein Coupled Receptor Signaling", "setting": "cardiac microtissues [3]", "value": -2.357}, {"measurement": "activation Z-score: GP6 Signaling Pathway", "setting": "cardiac microtissues [3]", "value": -1.633}, {"measurement": "activation Z-score: Glioma Invasiveness Signaling", "setting": "cardiac microtissues [3]", "value": -2}, {"measurement": "activation Z-score: HIF1Î± Signaling", "setting": "cardiac microtissues [3]", "value": -2.121}, {"measurement": "activation Z-score: HMGB1 Signaling", "setting": "cardiac microtissues [3]", "value": -2.236}, {"measurement": "activation Z-score: Hepatic Fibrosis Signaling Pathway", "setting": "cardiac microtissues [3]", "value": -2.138}, {"measurement": "activation Z-score: ILK Signaling", "setting": "cardiac microtissues [3]", "value": -1.134}, {"measurement": "activation Z-score: Insulin Secretion Signaling Pathway", "setting": "cardiac microtissues [3]", "value": -2.121}, {"measurement": "activation Z-score: Integrin Signaling", "setting": "cardiac microtissues [3]", "value": -2.449}, {"measurement": "activation Z-score: Kinetochore Metaphase Signaling Pathway", "setting": "cardiac microtissues [3]", "value": -3.402}, {"measurement": "activation Z-score: Mitotic Roles of Polo-Like Kinase", "setting": "cardiac microtissues [3]", "value": -2.309}, {"measurement": "activation Z-score: Protein Kinase A Signaling", "setting": "cardiac microtissues [3]", "value": -1.155}, {"measurement": "activation Z-score: Pyridoxal 5'-phosphate Salvage Pathway", "setting": "cardiac microtissues [3]", "value": -2.646}, {"measurement": "activation Z-score: RHOGDI Signaling", "setting": "cardiac microtissues [3]", "value": 1.89}, {"measurement": "activation Z-score: Regulation Of The Epithelial Mesenchymal Transition By Growth Factors Pathway", "setting": "cardiac microtissues [3]", "value": -2.449}, {"measurement": "activation Z-score: Role of NFAT in Cardiac Hypertrophy", "setting": "cardiac microtissues [3]", "value": -2}, {"measurement": "activation Z-score: Salvage Pathways of Pyrimidine Ribonucleotides", "setting": "cardiac microtissues [3]", "value": -2.828}, {"measurement": "activation Z-score: Senescence Pathway", "setting": "cardiac microtissues [3]", "value": 0.728}, {"measurement": "activation Z-score: Sphingosine-1-phosphate Signaling", "setting": "cardiac microtissues [3]", "value": -2}, {"measurement": "activation Z-score: Superpathway of Inositol Phosphate Compounds", "setting": "cardiac microtissues [3]", "value": -2.449}, {"measurement": "activation Z-score: Thrombin Signaling", "setting": "cardiac microtissues [3]", "value": -2.236}, {"measurement": "activation Z-score: White Adipose Tissue Browning Pathway", "setting": "cardiac microtissues [3]", "value": -1.633}, {"measurement": "activation Z-score: Wound Healing Signaling Pathway", "setting": "cardiac microtissues [3]", "value": -2.111}, {"measurement": "activation Z-score: cAMP-mediated signaling", "setting": "cardiac microtissues [3]", "value": -1.633}, {"measurement": "activation Z-score: tRNA Charging", "setting": "cardiac microtissues [3]", "value": 2.646}]}
{"molecule": "CC(=O)[C@]1(O)Cc2c(O)c3c(c(O)c2[C@@H](O[C@H]2C[C@H](N)[C@H](O)[C@H](C)O2)C1)C(=O)c1ccccc1C3=O", "note": "[Idarubicin HCl]", "values": [{"measurement": "number of significant differentially expressed genes, 6hr high", "setting": "cardiac microtissues [1]", "value": 24}, {"measurement": "number of significant differentially expressed genes, 6hr low", "setting": "cardiac microtissues [1]", "value": 12}, {"measurement": "number of significant differentially expressed genes, 48hr high", "setting": "cardiac microtissues [1]", "value": 2838}, {"measurement": "number of significant differentially expressed genes, 48hr low", "setting": "cardiac microtissues [1]", "value": 578}, {"measurement": "number of significant differentially expressed genes, 72hr high", "setting": "cardiac microtissues [1]", "value": 1616}, {"measurement": "number of significant differentially expressed genes, 72hr low", "setting": "cardiac microtissues [1]", "value": 864}, {"measurement": "Structural cardiotoxin?", "setting": "[2]", "value": "Y"}, {"measurement": "Functional cardiotoxin?", "setting": "[2]", "value": "Y"}, {"measurement": "activation Z-score: Acute Phase Response Signaling", "setting": "cardiac microtissues [3]", "value": -0.816}, {"measurement": "activation Z-score: Apelin Liver Signaling Pathway", "setting": "cardiac microtissues [3]", "value": -0.707}, {"measurement": "activation Z-score: BER (Base Excision Repair) Pathway", "setting": "cardiac microtissues [3]", "value": -2.333}, {"measurement": "activation Z-score: Cardiac Hypertrophy Signaling", "setting": "cardiac microtissues [3]", "value": -1.732}, {"measurement": "activation Z-score: Cardiomyocyte Differentiation via BMP Receptors", "setting": "cardiac microtissues [3]", "value": -2.236}, {"measurement": "activation Z-score: Cell Cycle Control of Chromosomal Replication", "setting": "cardiac microtissues [3]", "value": -3.71}, {"measurement": "activation Z-score: Cell Cycle Regulation by BTG Family Proteins", "setting": "cardiac microtissues [3]", "value": -1.342}, {"measurement": "activation Z-score: Cyclins and Cell Cycle Regulation", "setting": "cardiac microtissues [3]", "value": -1.941}, {"measurement": "activation Z-score: D-myo-inositol-5-phosphate Metabolism", "setting": "cardiac microtissues [3]", "value": 0.258}, {"measurement": "activation Z-score: DNA Methylation and Transcriptional Repression Signaling", "setting": "cardiac microtissues [3]", "value": -0.535}, {"measurement": "activation Z-score: Estrogen-mediated S-phase Entry", "setting": "cardiac microtissues [3]", "value": -1.897}, {"measurement": "activation Z-score: Factors Promoting Cardiogenesis in Vertebrates", "setting": "cardiac microtissues [3]", "value": -2.117}, {"measurement": "activation Z-score: G-Protein Coupled Receptor Signaling", "setting": "cardiac microtissues [3]", "value": 0.53}, {"measurement": "activation Z-score: GP6 Signaling Pathway", "setting": "cardiac microtissues [3]", "value": 0.378}, {"measurement": "activation Z-score: Glioma Invasiveness Signaling", "setting": "cardiac microtissues [3]", "value": -0.632}, {"measurement": "activation Z-score: HIF1Î± Signaling", "setting": "cardiac microtissues [3]", "value": 0.209}, {"measurement": "activation Z-score: HMGB1 Signaling", "setting": "cardiac microtissues [3]", "value": -0.577}, {"measurement": "activation Z-score: Hepatic Fibrosis Signaling Pathway", "setting": "cardiac microtissues [3]", "value": -1.508}, {"measurement": "activation Z-score: ILK Signaling", "setting": "cardiac microtissues [3]", "value": -3}, {"measurement": "activation Z-score: Insulin Secretion Signaling Pathway", "setting": "cardiac microtissues [3]", "value": -0.192}, {"measurement": "activation Z-score: Integrin Signaling", "setting": "cardiac microtissues [3]", "value": -1.877}, {"measurement": "activation Z-score: Kinetochore Metaphase Signaling Pathway", "setting": "cardiac microtissues [3]", "value": -2.556}, {"measurement": "activation Z-score: Mismatch Repair in Eukaryotes", "setting": "cardiac microtissues [3]", "value": -2.333}, {"measurement": "activation Z-score: Mitotic Roles of Polo-Like Kinase", "setting": "cardiac microtissues [3]", "value": -1.604}, {"measurement": "activation Z-score: NER (Nucleotide Excision Repair, Enhanced Pathway)", "setting": "cardiac microtissues [3]", "value": -2.183}, {"measurement": "activation Z-score: Nitric Oxide Signaling in the Cardiovascular System", "setting": "cardiac microtissues [3]", "value": 0.775}, {"measurement": "activation Z-score: Protein Kinase A Signaling", "setting": "cardiac microtissues [3]", "value": 0.302}, {"measurement": "activation Z-score: Pyridoxal 5'-phosphate Salvage Pathway", "setting": "cardiac microtissues [3]", "value": -1}, {"measurement": "activation Z-score: RHOGDI Signaling", "setting": "cardiac microtissues [3]", "value": 0.816}, {"measurement": "activation Z-score: Regulation Of The Epithelial Mesenchymal Transition By Growth Factors Pathway", "setting": "cardiac microtissues [3]", "value": -1.147}, {"measurement": "activation Z-score: Role of NFAT in Cardiac Hypertrophy", "setting": "cardiac microtissues [3]", "value": -1.512}, {"measurement": "activation Z-score: SPINK1 General Cancer Pathway", "setting": "cardiac microtissues [3]", "value": 2.333}, {"measurement": "activation Z-score: Salvage Pathways of Pyrimidine Ribonucleotides", "setting": "cardiac microtissues [3]", "value": -1}, {"measurement": "activation Z-score: Senescence Pathway", "setting": "cardiac microtissues [3]", "value": 1.768}, {"measurement": "activation Z-score: Sphingosine-1-phosphate Signaling", "setting": "cardiac microtissues [3]", "value": 0}, {"measurement": "activation Z-score: Superpathway of Inositol Phosphate Compounds", "setting": "cardiac microtissues [3]", "value": 0.894}, {"measurement": "activation Z-score: Thrombin Signaling", "setting": "cardiac microtissues [3]", "value": -0.471}, {"measurement": "activation Z-score: White Adipose Tissue Browning Pathway", "setting": "cardiac microtissues [3]", "value": -2.449}, {"measurement": "activation Z-score: Wound Healing Signaling Pathway", "setting": "cardiac microtissues [3]", "value": -0.164}, {"measurement": "activation Z-score: cAMP-mediated signaling", "setting": "cardiac microtissues [3]", "value": 0}]}
